Assay: Water release in climate chamber
Format: physicochemical
Conditions: room temperature, humidity 50%
Procedure: When urea was added, up to a ratio of 5% keratin to 95% urea, the maximum was reached increasingly later, in the maximum case only after 15 days. In this case, the water absorption capacity was 197%. (FIG. 13). The water release was determined at room temperature and a humidity of 50%. […] For the mixtures of keratin and urea in the ratios 25:75 and 10:[…], a water content of 25% was still observed even after 4 days (FIG. 14).

Time to complete water release: 4 days
Water release within the first 24 hours: around 170%
SMILES: NC(N)=O [urea]

— US20260234208A1, “METHOD FOR PRODUCING A KERATIN POWDER FROM FEATHERS OF ANIMAL ORIGIN, COLLOIDAL SOLUTION AND KERATIN POWDER FOR TOPICAL APPLICATION CONTAINING KERATIN PARTICLES, AND USE OF THE COLLOIDAL SOLUTION AND THE KERATIN POWDER” (RIGI THERAPEUTICS AG, priority 2023, published 2026)
